# Experimental data: patent US20230405028A1 (priority 2020, published 2023)
# Where two headings read alike, the source gives them in different places.
# Key:
# [1] = tested on: BDNF; experiment: BDNF in A-172 cells; type: cell-based; details: escalating doses
# Source text: (§1) This experiment was designed to explore the synergistic interaction of 5HT2A agonist and a TRP agonists on receptors in the brain that are associated with depression and/or inflammation. […] The development of an inflammatory microenvironment is considered important to the initiation and progression of glioblastoma; however, therapeutic approaches to target inflammation have previously been limited. The abnormal function of IL-6 and IL-8 has been predicted to lead to glioblastoma.
# (§2) Thus, unlike the experiments on HSIEC cells described above, no inflammatory treatment was applied to the A-172 cells. The A-172 cells were grown to […] confluence on T-25 flasks to allow a 96-hour duration of exposure of the cells to the compounds of interest
# [2] = tested on: GABA; experiment: GABA in A-172 cells; type: cell-based; details: escalating doses
# Source text: as §1, §2
# [3] = tested on: Human primary small intestinal epithelial cells (HSIEC)
# [4] = tested on: individuals; experiment: Minimum effective dose (MED, MED50) and perceived effects of 5HT2A agonist with or without TRP agonists in individuals; type: in vivo, human
# [5] = tested on: iNOS; experiment: iNOS in HSIEC cells treated with TNF-α/IFN-γ; type: cell-based, human; details: 5, 10, 20, 40 μM
# [6] = tested on: individuals; experiment: Surveys of participants using the formulations (music festival, wellness retreat, home use); details: surveys and self-report
# Procedure: Edible chew and capsule formulations including the Base 07—Complete with coffee beans, the 5HT2A agonist alone with corn starch (positive control) or sugar and placebo formulations including corn starch (negative control) or sugar alone (double negative control) were prepared and provided to small groups of individuals for assessment of the effects of the compositions.
# The formulations also included additional GRAS material. […] Some studies were undertaken in the context of a music festival. Other studies were undertaken at psilocybin retreat events. Numerous individuals also self-administered the formulations in their personal space and observed their daily routines over an extended number of days of using the formulations. Exclusion criteria were applied in a questionnaire to exclude individuals with a schizophrenia diagnosis, individuals with a family history of schizophrenia, pregnant individuals, minors and other high-risk categories for using psilocybin.
# Typically, between 1 and 9 dosage units were provided to each participant per day. The studies varied in duration from one day to four weeks. Heavier individuals (<75 kg) were typically given larger dosages.
# On multiple occasions a standard dose of the chocolate format of the complete recipe was distributed prior to a music festival event in Jamaica. […]
# [7] = tested on: A-172 glioblastoma cells; experiment: MTT cell viability assay in A-172 cells; details: for effect on cell growth (MTT, words): A-172, psilocybin 80 μM
# [8] = tested on: COX-2; experiment: COX-2 in A-172 cells; type: cell-based; details: 5 μM psilocybin + 25 μM eugenol vs 5 μM psilocybin alone, eugenol alone 25 μM
# Source text: as §1, §2
compound,measurement,setting,value
"CN(C)CCc1c[nH]c2cccc(OP(=O)(O)O)c12 [psilocybin, 3-[2-(dimethylamino)ethyl]-4-phosphoryloxyindole, reference compound]",doses resulting in the decrease of BDNF,[1],20 µM
same,dose resulting in the greatest increase of GABA,[2],5 µM
same,"effect on cell growth / cellular metabolic activity (MTT, words)",[3],increase growth of cells
same,Cellular Metabolic Activity,"[3]; 5 μM, 24 h",0.098
same,Cellular Metabolic Activity,"[3]; 5 μM, 48 h",0.186
same,Cellular Metabolic Activity,"[3]; 5 μM, 72 h",0.380
same,Cellular Metabolic Activity,"[3]; 5 μM, 96 h",0.621
same,Cellular Metabolic Activity,"[3]; 5 μM, time 0",0.047
same,Cellular Metabolic Activity,"[3]; 10 μM, 24 h",0.107
same,Cellular Metabolic Activity,"[3]; 10 μM, 48 h",0.198
same,Cellular Metabolic Activity,"[3]; 10 μM, 72 h",0.388
same,Cellular Metabolic Activity,"[3]; 10 μM, 96 h",0.624
same,Cellular Metabolic Activity,"[3]; 10 μM, time 0",0.038
same,Cellular Metabolic Activity,"[3]; 20 μM, 24 h",0.150
same,Cellular Metabolic Activity,"[3]; 20 μM, 48 h",0.238
same,Cellular Metabolic Activity,"[3]; 20 μM, 72 h",0.415
same,Cellular Metabolic Activity,"[3]; 20 μM, 96 h",0.635
same,Cellular Metabolic Activity,"[3]; 20 μM, time 0",0.038
same,Cellular Metabolic Activity,"[3]; 40 μM, 24 h",0.182
same,Cellular Metabolic Activity,"[3]; 40 μM, 48 h",0.259
same,Cellular Metabolic Activity,"[3]; 40 μM, 72 h",0.467
same,Cellular Metabolic Activity,"[3]; 40 μM, 96 h",0.685
same,Cellular Metabolic Activity,"[3]; 40 μM, time 0",0.041
same,Cellular Metabolic Activity,"[3]; 80 μM, 24 h",0.345
same,Cellular Metabolic Activity,"[3]; 80 μM, 48 h",0.371
same,Cellular Metabolic Activity,"[3]; 80 μM, 72 h",0.579
same,Cellular Metabolic Activity,"[3]; 80 μM, 96 h",0.805
same,Cellular Metabolic Activity,"[3]; 80 μM, time 0",0.042
same,Cellular Metabolic Activity,"[3]; 160 μM, 24 h",0.523
same,Cellular Metabolic Activity,"[3]; 160 μM, 48 h",0.604
same,Cellular Metabolic Activity,"[3]; 160 μM, 72 h",0.808
same,Cellular Metabolic Activity,"[3]; 160 μM, 96 h",1.099
same,Cellular Metabolic Activity,"[3]; 160 μM, time 0",0.042
same,reduction in the MED50 with TRP agonists added,[4]; FIGS. 6 to 8,~60%
same,MED (dose for 100% of individuals to report a psychoactive effect),"[4]; oral, 70 kg individual",over 0.3 g of dried fruiting bodies
same,dose reducing iNOS to the greatest extent,[5],10 µM
same,side effects / tolerance / intoxication,[6],no reports of intoxication or other psychoactive effects to a degree that influenced motor skills or coordination
same,Cellular Metabolic Activity,"[7]; 5 μM, 24 h",0.155
same,Cellular Metabolic Activity,"[7]; 5 μM, 48 h",0.253
same,Cellular Metabolic Activity,"[7]; 5 μM, 72 h",0.374
same,Cellular Metabolic Activity,"[7]; 5 μM, 96 h",0.530
same,Cellular Metabolic Activity,"[7]; 5 μM, time 0",0.090
same,Cellular Metabolic Activity,"[7]; 10 μM, 24 h",0.181
same,Cellular Metabolic Activity,"[7]; 10 μM, 48 h",0.269
same,Cellular Metabolic Activity,"[7]; 10 μM, 72 h",0.363
same,Cellular Metabolic Activity,"[7]; 10 μM, 96 h",0.577
same,Cellular Metabolic Activity,"[7]; 10 μM, time 0",0.090
same,Cellular Metabolic Activity,"[7]; 20 μM, 24 h",0.201
same,Cellular Metabolic Activity,"[7]; 20 μM, 48 h",0.303
same,Cellular Metabolic Activity,"[7]; 20 μM, 72 h",0.370
same,Cellular Metabolic Activity,"[7]; 20 μM, 96 h",0.636
same,Cellular Metabolic Activity,"[7]; 20 μM, time 0",0.082
same,Cellular Metabolic Activity,"[7]; 40 μM, 24 h",0.287
same,Cellular Metabolic Activity,"[7]; 40 μM, 48 h",0.369
same,Cellular Metabolic Activity,"[7]; 40 μM, 72 h",0.457
same,Cellular Metabolic Activity,"[7]; 40 μM, 96 h",0.703
same,Cellular Metabolic Activity,"[7]; 40 μM, time 0",0.086
same,Cellular Metabolic Activity,"[7]; 80 μM, 24 h",0.469
same,Cellular Metabolic Activity,"[7]; 80 μM, 48 h",0.528
same,Cellular Metabolic Activity,"[7]; 80 μM, 72 h",0.586
same,Cellular Metabolic Activity,"[7]; 80 μM, 96 h",0.871
same,Cellular Metabolic Activity,"[7]; 80 μM, time 0",0.084
same,"effect on cell growth (MTT, words)",[7],modest increase in cell growth
C=CCc1ccc(O)c(OC)c1 [eugenol],dose resulting in the greatest increase in BDNF,[1],100 µM
same,effect on COX-2,[8],increase
same,"effect on cell growth / cellular metabolic activity (MTT, words)",[3],slight inhibitory effect on cell growth
same,Cellular Metabolic Activity,"[3]; 10 μM, 24 h",0.064
same,Cellular Metabolic Activity,"[3]; 10 μM, 48 h",0.168
same,Cellular Metabolic Activity,"[3]; 10 μM, 72 h",0.346
same,Cellular Metabolic Activity,"[3]; 10 μM, 96 h",0.632
same,Cellular Metabolic Activity,"[3]; 10 μM, time 0",0.047
same,Cellular Metabolic Activity,"[3]; 50 μM, 24 h",0.079
same,Cellular Metabolic Activity,"[3]; 50 μM, 48 h",0.145
same,Cellular Metabolic Activity,"[3]; 50 μM, 72 h",0.337
same,Cellular Metabolic Activity,"[3]; 50 μM, 96 h",0.647
same,Cellular Metabolic Activity,"[3]; 50 μM, time 0",0.038
same,Cellular Metabolic Activity,"[3]; 100 μM, 24 h",0.075
same,Cellular Metabolic Activity,"[3]; 100 μM, 48 h",0.136
same,Cellular Metabolic Activity,"[3]; 100 μM, 72 h",0.346
same,Cellular Metabolic Activity,"[3]; 100 μM, 96 h",0.662
same,Cellular Metabolic Activity,"[3]; 100 μM, time 0",0.038
same,Cellular Metabolic Activity,"[3]; 200 μM, 24 h",0.064
same,Cellular Metabolic Activity,"[3]; 200 μM, 48 h",0.111
same,Cellular Metabolic Activity,"[3]; 200 μM, 72 h",0.296
same,Cellular Metabolic Activity,"[3]; 200 μM, 96 h",0.652
same,Cellular Metabolic Activity,"[3]; 200 μM, time 0",0.041
same,Cellular Metabolic Activity,"[3]; 400 μM, 24 h",0.059
same,Cellular Metabolic Activity,"[3]; 400 μM, 48 h",0.128
same,Cellular Metabolic Activity,"[3]; 400 μM, 72 h",0.242
same,Cellular Metabolic Activity,"[3]; 400 μM, 96 h",0.549
same,Cellular Metabolic Activity,"[3]; 400 μM, time 0",0.042
same,Cellular Metabolic Activity,"[3]; 800 μM, 24 h",0.053
same,Cellular Metabolic Activity,"[3]; 800 μM, 48 h",0.091
same,Cellular Metabolic Activity,"[3]; 800 μM, 96 h",0.268
same,Cellular Metabolic Activity,"[3]; 800 μM, time 0",0.042
same,Cellular Metabolic Activity,"[7]; 10 μM, 24 h",0.137
same,Cellular Metabolic Activity,"[7]; 10 μM, 48 h",0.234
same,Cellular Metabolic Activity,"[7]; 10 μM, 72 h",0.329
same,Cellular Metabolic Activity,"[7]; 10 μM, 96 h",0.533
same,Cellular Metabolic Activity,"[7]; 10 μM, time 0",0.084
same,Cellular Metabolic Activity,"[7]; 25 μM, 24 h",0.153
same,Cellular Metabolic Activity,"[7]; 25 μM, 48 h",0.266
same,Cellular Metabolic Activity,"[7]; 25 μM, 72 h",0.318
same,Cellular Metabolic Activity,"[7]; 25 μM, 96 h",0.557
same,Cellular Metabolic Activity,"[7]; 25 μM, time 0",0.083
same,Cellular Metabolic Activity,"[7]; 50 μM, 24 h",0.146
same,Cellular Metabolic Activity,"[7]; 50 μM, 48 h",0.229
same,Cellular Metabolic Activity,"[7]; 50 μM, 72 h",0.327
same,Cellular Metabolic Activity,"[7]; 50 μM, 96 h",0.542
same,Cellular Metabolic Activity,"[7]; 50 μM, time 0",0.086
same,Cellular Metabolic Activity,"[7]; 100 μM, 24 h",0.170
same,Cellular Metabolic Activity,"[7]; 100 μM, 48 h",0.230
same,Cellular Metabolic Activity,"[7]; 100 μM, 72 h",0.322
same,Cellular Metabolic Activity,"[7]; 100 μM, 96 h",0.516
same,Cellular Metabolic Activity,"[7]; 100 μM, time 0",0.082
same,Cellular Metabolic Activity,"[7]; 200 μM, 24 h",0.170
same,Cellular Metabolic Activity,"[7]; 200 μM, 48 h",0.224
same,Cellular Metabolic Activity,"[7]; 200 μM, 72 h",0.313
same,Cellular Metabolic Activity,"[7]; 200 μM, 96 h",0.431
same,Cellular Metabolic Activity,"[7]; 200 μM, time 0",0.089
same,Cellular Metabolic Activity,"[7]; 400 μM, 24 h",0.173
same,Cellular Metabolic Activity,"[7]; 400 μM, 48 h",0.208
same,Cellular Metabolic Activity,"[7]; 400 μM, 72 h",0.272
same,Cellular Metabolic Activity,"[7]; 400 μM, 96 h",0.422
same,Cellular Metabolic Activity,"[7]; 400 μM, time 0",0.088
same,"effect on cell growth (MTT, words)",[7],slight inhibitory effect
